“Also recorded” adds a separate entry of the source. Like-named read-outs stand apart in the source and are kept apart here.
What was measured:
[1] = test system: SW620 colorectal cancer cells expressing the TOP-GFP construct; experiment: High-throughput screening for cell repulsion/adhesion on a high-density peptide chip, fluorescence detection; format: cell-based; settings: incubated for 24 hours on the peptide chip; for cell adhesion / cell repulsion on peptide spots, measured by the strength of the fluorescent signal: 1×10^7 cells in 3 ml, 30 µm × 30 µm spots
[2] = test system: SW620 colorectal cancer cells expressing the TOP-GFP construct; experiment: Formation of cell patterns on alternating peptide patterns, continuous fluorescence detection (live cell imaging); format: cell-based; settings: patterns of 3 sp × 3 sp and 1 sp (30 µm); up to 24 hours of incubation; Fig. 10
Description: The settlement of cells on alternating patterns of the cell-repellent and cell-adhesive peptides IAMTPPNATEASKPQ and FLCSLFAPVCLDRPI, respectively, were examined over time (Fig. 10). […] Peptide patterns in the form of the letters KI were made of squares of 3 sp × 3 sp. The cellular patterns are clearly distinguishable as long as the area of the cell-repellent peptide has a size of 30 µm in diameter (1 sp). To follow the formation of such cellular patterns, the behaviour of cells was examined over time (continuous fluorescence detection). Fig. 10b, 10c, 10d and 10e show the different states of the same chip fragment with cell-repellent peptides at different incubation times. Relatively quickly, in the first minutes after seeding, cells randomly distribute over the entire surface (Fig. 10b) and start to form clusters (Fig. 10c), which adhere to the bottom. After that, the cell clusters leave the area of peptides with cell repulsion (Fig. 10d). […]
On the day of incubation, cells were detached using Accutase followed by selection in serum-containing medium (DMEM). […] After 24 hours, the plates were either analysed using confocal microscopy or fixed.
For imaging of the cells, a Zeiss LSM800 confocal microscope was used. […] The microscopic slide was then transferred to a live cell incubation chamber (37°C) and observed via continuous fluorescence detection for a period of 24 hours.

CD44v6 [3] = settings: human (1) background; Matzke-Ogi et al. 2016; cited from earlier work
pancreatic tumour = settings: human (1) or murine (2) background; Matzke-Ogi et al. 2016; cited from earlier work
CD44v6 [4] = settings: murine (2) background; Matzke-Ogi et al. 2016; cited from earlier work

AIKNLPPPTKGQEGS
cell adhesion / cell repulsion on peptide spots, measured by the strength of the fluorescent signal [1]: strongest cell-repellent properties

EVK
cell adhesion / cell repulsion on peptide spots, measured by the strength of the fluorescent signal [1]: repellent motif for cells

FLCSLFAPVCLDRPI
settlement of cells on alternating peptide patterns over time [2]: cell-adhesive

HPGSAVSASNAIKNL
cell adhesion / cell repulsion on peptide spots, measured by the strength of the fluorescent signal [1]: strongest cell-repellent properties

IAMTPPNATEASKPQ
settlement of cells on alternating peptide patterns over time [2]: cell-repellent

KENGDKKIVPKKKKP
cell pattern (filling of peptide spots) ([1]; Fig. 2): well-defined island shape

KEQWFGNRWHEGYR
co-receptor function of CD44v6 of the receptor tyrosine kinase MET (CD44v6 [3]): inhibit the co-receptor function of CD44v6
pancreatic tumour growth and metastasis (pancreatic tumour): inhibit pancreatic tumour growth and metastasis

NGWQG
co-receptor function of CD44v6 of the receptor tyrosine kinase MET (CD44v6 [4]): inhibit the co-receptor function of CD44v6
pancreatic tumour growth and metastasis (pancreatic tumour): inhibit pancreatic tumour growth and metastasis

NRWHE
co-receptor function of CD44v6 of the receptor tyrosine kinase MET (CD44v6 [3]): inhibit the co-receptor function of CD44v6
pancreatic tumour growth and metastasis (pancreatic tumour): inhibit pancreatic tumour growth and metastasis

PCQRETPEGAEAKP [SEQ ID No. 13]
cell adhesion / cell repulsion on peptide spots, measured by the strength of the fluorescent signal [1]: repulsive

QETWF
cell adhesion / cell repulsion on peptide spots, measured by the strength of the fluorescent signal [1]: top ten cell-repellent peptides

QETWFQNGNQGKN [modified peptide of …, replacement of the amino acid W by N]
cell adhesion / cell repulsion on peptide spots, measured by the strength of the fluorescent signal [1]: maximum cell repulsion

QETWFQNGWQGKNP
co-receptor function of CD44v6 of the receptor tyrosine kinase MET (CD44v6 [4]): inhibit the co-receptor function of CD44v6
pancreatic tumour growth and metastasis (pancreatic tumour): inhibit pancreatic tumour growth and metastasis

QNGNQGKN
cell adhesion / cell repulsion on peptide spots, measured by the strength of the fluorescent signal [1]: strong cell repulsion

SDKKPVAHVVANPQAE [SEQ ID No. 11]
cell adhesion / cell repulsion on peptide spots, measured by the strength of the fluorescent signal [1]: repulsive

TPPNATEASKPQGTT
cell adhesion / cell repulsion on peptide spots, measured by the strength of the fluorescent signal [1]: strongest cell-repellent properties

YPYDVPDYA [HA epitope, reference compound]
cell adhesion / cell repulsion on peptide spots, measured by the strength of the fluorescent signal [1]: strong cell-attractive; also recorded: highest adhesion to cells

Source: EP4464714A1, “SCREENING METHOD FOR CELL-REPELLING PEPTIDES” (Karlsruher Institut für Technologie, priority 2023, dated 2024)
